Reference: ChEMBL document CHEMBL4387741, “Optimization of novel reversible Bruton's tyrosine kinase inhibitors identified using Tethering-fragment-based screens” (Bioorg Med Chem, 2019)

Tests used:
[1] = test system: Serine/threonine-protein kinase B-raf (Homo sapiens), P15056 [V600E]; assay: Inhibition of human partial length BRAF V600E mutant (S429 to E741 residues) expressed in mammalian expression system at 1 uM by Kinomescan method relative to control
[2] = biological target: Tyrosine-protein kinase Fer (Homo sapiens) (UniProt P16591); assay: Inhibition of wild-type human partial length FER (S542 to T822 residues) expressed in bacterial expression system at 1 uM by Kinomescan method relative to control
[3] = biological target: Rhodopsin kinase GRK7 (Homo sapiens) (UniProt Q8WTQ7); assay: Inhibition of wild-type human full length GRK7 (M1 to L553 residues) expressed in mammalian expression system at 1 uM by Kinomescan method relative to control
Sequence of Rhodopsin kinase GRK7 (Homo sapiens) (Q8WTQ7 whole entry, the tested form may be a part): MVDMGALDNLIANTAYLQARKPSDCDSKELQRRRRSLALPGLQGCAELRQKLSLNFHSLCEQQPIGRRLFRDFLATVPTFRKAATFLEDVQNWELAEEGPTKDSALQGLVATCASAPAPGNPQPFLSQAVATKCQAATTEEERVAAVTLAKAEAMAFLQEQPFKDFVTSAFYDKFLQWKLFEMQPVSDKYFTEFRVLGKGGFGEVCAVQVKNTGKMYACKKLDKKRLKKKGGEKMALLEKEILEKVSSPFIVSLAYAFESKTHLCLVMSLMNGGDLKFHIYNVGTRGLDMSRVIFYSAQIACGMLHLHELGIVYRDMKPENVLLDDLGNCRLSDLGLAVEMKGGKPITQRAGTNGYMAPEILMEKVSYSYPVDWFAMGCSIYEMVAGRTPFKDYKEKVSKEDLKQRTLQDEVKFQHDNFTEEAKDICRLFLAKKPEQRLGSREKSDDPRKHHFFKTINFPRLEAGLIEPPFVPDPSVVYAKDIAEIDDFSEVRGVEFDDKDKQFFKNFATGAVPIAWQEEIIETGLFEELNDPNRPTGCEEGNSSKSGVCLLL

[4] = biological target: Insulin-like growth factor 1 receptor (Homo sapiens) (UniProt P08069); assay: Inhibition of wild-type human partial length IGF1R (L972 to D1294 residues) expressed in bacterial expression system at 1 uM by Kinomescan method relative to control
[5] = biological target: Tyrosine-protein kinase JAK1 (Homo sapiens) (UniProt P23458); assay: Inhibition of wild-type human partial length JAK1 JH1 catalytic domain (V856 to K1154 residues) expressed in bacterial expression system at 1 uM by Kinomescan method relative to control
[6] = biological target: Myosin light chain kinase family member 4 (Homo sapiens) (UniProt Q86YV6); assay: Inhibition of wild-type human partial length MYLK4 (V79 to S380 residues) expressed in bacterial expression system at 1 uM by Kinomescan method relative to control
[7] = biological target: Serine/threonine-protein kinase Nek5 (Homo sapiens) (UniProt Q6P3R8); assay: Inhibition of wild-type human partial length NEK5 (M1 to M279 residues) expressed in bacterial expression system at 1 uM by Kinomescan method relative to control
[8] = biological target: Phosphatidylinositol 3-kinase C2 domain-containing subunit gamma (Homo sapiens) (UniProt O75747); assay: Inhibition of wild-type human partial length PIK3C2G (M1 to I1446 residues) expressed in mammalian expression system at 1 uM by Kinomescan method relative to control
[9] = biological target: Serine/threonine-protein kinase PLK4 (Homo sapiens) (UniProt O00444); assay: Inhibition of wild-type human partial length PLK4 (M1 to S273 residues) expressed in mammalian expression system at 1 uM by Kinomescan method relative to control
[10] = biological target: Proto-oncogene tyrosine-protein kinase ROS (Homo sapiens) (UniProt P08922); assay: Inhibition of wild-type human partial length ROS1 (A1921 to N2240 residues) expressed in bacterial expression system at 1 uM by Kinomescan method relative to control
[11] = biological target: Ribosomal protein S6 kinase alpha-4 (Homo sapiens) (UniProt O75676); assay: Inhibition of wild-type human partial length N-terminal RPS6KA4 kinase domain 1 expressed in bacterial expression system at 1 uM by Kinomescan method relative to control
[12] = Lipophilicity, log D of the compound; type: physicochemical; details: octanol/water
[13] = test system: Tyrosine-protein kinase ABL1 (Homo sapiens), P00519 [F317I]; assay: Inhibition of human phosphorylated ABL1 F317I mutant (S229 to K512 residues) expressed in mammalian expression system at 10 uM by Kinomescan method relative to control
[14] = biological target: Mitogen-activated protein kinase kinase kinase 5 (Homo sapiens) (UniProt Q99683); assay: Inhibition of wild-type human partial length ASK1 (E648 to S964 residues) expressed in bacterial expression system at 10 uM by Kinomescan method relative to control
[15] = biological target: Aurora kinase C (Homo sapiens) (UniProt Q9UQB9); assay: Inhibition of wild-type human full length AURKC (M1 to S275 residues) expressed in bacterial expression system at 10 uM by Kinomescan method relative to control
[16] = biological target: Casein kinase II subunit alpha (Homo sapiens) (UniProt P68400); assay: Inhibition of wild-type human full length CSNK2A1 (M1 to Q391 residues) expressed in mammalian expression system at 10 uM by Kinomescan method relative to control
[17] = biological target: Death-associated protein kinase 1 (Homo sapiens) (UniProt P53355); assay: Inhibition of wild-type human partial length DAPK1 (M1 to F296 residues) expressed in bacterial expression system at 10 uM by Kinomescan method relative to control
[18] = test system: Receptor-type tyrosine-protein kinase FLT3 (Homo sapiens), P36888 [D835Y]; assay: Inhibition of human partial length FLT3 D835Y mutant (Q580 to Y969 residues) expressed in bacterial expression system at 10 uM by Kinomescan method relative to control
[19] = biological target: Microtubule-associated serine/threonine-protein kinase 1 (Homo sapiens) (UniProt Q9Y2H9); assay: Inhibition of wild-type human partial length MAST1 (S346 to V730 residues) expressed in mammalian expression system at 10 uM by Kinomescan method relative to control
Sequence of Microtubule-associated serine/threonine-protein kinase 1 (Homo sapiens) (Q9Y2H9 whole entry, looked up, the tested form may be a part): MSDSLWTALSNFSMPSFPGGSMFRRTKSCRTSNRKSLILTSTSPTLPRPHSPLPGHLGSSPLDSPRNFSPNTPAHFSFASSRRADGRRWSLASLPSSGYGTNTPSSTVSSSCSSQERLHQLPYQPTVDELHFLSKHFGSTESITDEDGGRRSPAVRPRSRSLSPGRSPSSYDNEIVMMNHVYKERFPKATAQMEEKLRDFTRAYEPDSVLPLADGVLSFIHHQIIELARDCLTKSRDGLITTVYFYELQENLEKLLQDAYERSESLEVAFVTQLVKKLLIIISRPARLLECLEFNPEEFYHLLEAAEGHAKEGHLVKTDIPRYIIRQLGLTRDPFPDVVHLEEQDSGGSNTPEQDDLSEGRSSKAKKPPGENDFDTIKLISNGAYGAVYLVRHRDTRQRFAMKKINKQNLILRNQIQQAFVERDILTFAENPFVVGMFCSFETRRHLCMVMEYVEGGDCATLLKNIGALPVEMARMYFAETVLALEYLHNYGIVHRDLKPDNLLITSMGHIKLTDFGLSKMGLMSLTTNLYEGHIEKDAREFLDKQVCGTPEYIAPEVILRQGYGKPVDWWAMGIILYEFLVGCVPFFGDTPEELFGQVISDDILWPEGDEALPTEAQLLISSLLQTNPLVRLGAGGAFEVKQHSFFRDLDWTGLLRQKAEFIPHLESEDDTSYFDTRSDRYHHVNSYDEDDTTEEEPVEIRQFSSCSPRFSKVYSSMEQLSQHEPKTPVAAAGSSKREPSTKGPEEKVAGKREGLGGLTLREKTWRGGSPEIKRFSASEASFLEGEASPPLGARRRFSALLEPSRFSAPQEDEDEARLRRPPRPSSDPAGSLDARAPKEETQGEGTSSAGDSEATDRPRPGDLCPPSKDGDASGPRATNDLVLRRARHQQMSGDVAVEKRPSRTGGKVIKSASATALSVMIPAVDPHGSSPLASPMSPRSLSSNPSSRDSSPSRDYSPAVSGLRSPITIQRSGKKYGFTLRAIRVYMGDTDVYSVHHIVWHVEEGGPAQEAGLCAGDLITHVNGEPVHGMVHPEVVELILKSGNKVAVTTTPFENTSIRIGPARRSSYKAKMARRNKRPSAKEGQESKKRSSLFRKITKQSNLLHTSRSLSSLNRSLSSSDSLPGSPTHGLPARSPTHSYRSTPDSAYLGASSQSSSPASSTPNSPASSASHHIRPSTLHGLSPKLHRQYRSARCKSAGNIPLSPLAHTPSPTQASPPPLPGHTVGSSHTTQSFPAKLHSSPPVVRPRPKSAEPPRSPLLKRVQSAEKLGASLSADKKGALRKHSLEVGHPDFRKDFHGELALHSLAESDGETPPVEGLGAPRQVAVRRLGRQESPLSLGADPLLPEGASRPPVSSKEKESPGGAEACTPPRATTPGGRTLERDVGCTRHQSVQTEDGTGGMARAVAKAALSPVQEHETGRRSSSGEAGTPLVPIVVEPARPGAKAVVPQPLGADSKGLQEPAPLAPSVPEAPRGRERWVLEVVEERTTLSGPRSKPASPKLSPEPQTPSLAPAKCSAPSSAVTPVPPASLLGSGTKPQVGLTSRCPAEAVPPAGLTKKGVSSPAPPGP

[20] = biological target: Dual specificity mitogen-activated protein kinase kinase 3 (Homo sapiens) (UniProt P46734); assay: Inhibition of wild-type human full length MEK3 (M1 to S318 residues) expressed in mammalian expression system at 10 uM by Kinomescan method relative to control
Sequence of Dual specificity mitogen-activated protein kinase kinase 3 (Homo sapiens) (P46734 whole entry, the tested form may be a part): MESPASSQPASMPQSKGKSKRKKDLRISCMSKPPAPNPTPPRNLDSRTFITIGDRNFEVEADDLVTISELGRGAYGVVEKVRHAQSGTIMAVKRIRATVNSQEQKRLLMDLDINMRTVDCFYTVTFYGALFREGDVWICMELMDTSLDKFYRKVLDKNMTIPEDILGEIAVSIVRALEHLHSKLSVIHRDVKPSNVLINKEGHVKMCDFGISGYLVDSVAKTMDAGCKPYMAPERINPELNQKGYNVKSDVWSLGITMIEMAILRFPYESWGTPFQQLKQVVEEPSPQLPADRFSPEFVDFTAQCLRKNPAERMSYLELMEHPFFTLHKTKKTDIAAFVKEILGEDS

[21] = biological target: Serine/threonine-protein kinase Nek11 (Homo sapiens) (UniProt Q8NG66); assay: Inhibition of wild-type human partial length NEK11 (M1 to E313 residues) expressed in mammalian expression system at 10 uM by Kinomescan method relative to control
[22] = test system: Phosphatidylinositol 4,5-bisphosphate 3-kinase catalytic subunit alpha isoform (Homo sapiens), P42336 [E542K]; assay: Inhibition of human partial length PIK3CA E542K mutant (R108 to N1068 residues) expressed in mammalian expression system at 10 uM by Kinomescan method relative to control
Sequence of Phosphatidylinositol 4,5-bisphosphate 3-kinase catalytic subunit alpha isoform (Homo sapiens), P42336 [E542K] (P42336 whole entry E542K, the tested form may be a part, canonical isoform): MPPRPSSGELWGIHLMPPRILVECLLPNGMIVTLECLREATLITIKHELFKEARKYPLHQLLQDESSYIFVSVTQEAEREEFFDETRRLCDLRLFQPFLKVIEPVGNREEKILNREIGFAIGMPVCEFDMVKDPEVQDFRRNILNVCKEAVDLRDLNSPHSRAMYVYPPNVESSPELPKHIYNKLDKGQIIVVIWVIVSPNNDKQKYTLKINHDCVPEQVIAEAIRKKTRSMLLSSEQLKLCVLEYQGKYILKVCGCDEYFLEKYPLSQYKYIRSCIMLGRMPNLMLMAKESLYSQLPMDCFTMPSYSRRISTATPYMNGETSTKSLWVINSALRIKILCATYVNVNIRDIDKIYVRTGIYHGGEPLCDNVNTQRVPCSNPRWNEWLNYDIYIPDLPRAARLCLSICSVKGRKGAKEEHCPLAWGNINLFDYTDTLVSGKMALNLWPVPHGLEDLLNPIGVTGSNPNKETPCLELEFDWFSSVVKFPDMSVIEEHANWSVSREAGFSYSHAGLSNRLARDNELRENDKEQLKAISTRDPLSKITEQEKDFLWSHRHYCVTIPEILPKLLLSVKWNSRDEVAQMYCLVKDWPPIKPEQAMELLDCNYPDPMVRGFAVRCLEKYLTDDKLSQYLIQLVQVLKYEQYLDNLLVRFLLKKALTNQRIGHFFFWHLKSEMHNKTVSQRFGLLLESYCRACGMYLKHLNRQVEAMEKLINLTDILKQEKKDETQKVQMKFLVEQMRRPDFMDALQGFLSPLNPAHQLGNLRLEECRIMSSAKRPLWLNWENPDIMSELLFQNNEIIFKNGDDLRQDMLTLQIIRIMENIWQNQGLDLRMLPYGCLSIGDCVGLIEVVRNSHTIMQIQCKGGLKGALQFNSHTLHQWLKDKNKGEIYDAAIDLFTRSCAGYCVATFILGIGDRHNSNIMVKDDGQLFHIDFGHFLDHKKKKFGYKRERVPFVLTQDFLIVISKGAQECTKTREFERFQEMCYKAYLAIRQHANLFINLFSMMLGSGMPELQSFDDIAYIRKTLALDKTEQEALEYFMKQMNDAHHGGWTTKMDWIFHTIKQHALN

[23] = biological target: Protein kinase C delta type (Homo sapiens) (UniProt Q05655); assay: Inhibition of wild-type human partial length PRKCD (Q328 to D676 residues) expressed in bacterial expression system at 10 uM by Kinomescan method relative to control
[24] = biological target: Serine/threonine-protein kinase Sgk3 (Homo sapiens) (UniProt Q96BR1); assay: Inhibition of wild-type human partial length SGK3 (M119 to L496 residues) expressed in mammalian expression system at 10 uM by Kinomescan method relative to control
[25] = biological target: Serine/threonine-protein kinase SIK2 (Homo sapiens) (UniProt Q9H0K1); assay: Inhibition of wild-type human full length SIK2 (M1 to N926 residues) expressed in bacterial expression system at 10 uM by Kinomescan method relative to control
Sequence of Serine/threonine-protein kinase SIK2 (Homo sapiens) (Q9H0K1 whole entry, looked up, the tested form may be a part): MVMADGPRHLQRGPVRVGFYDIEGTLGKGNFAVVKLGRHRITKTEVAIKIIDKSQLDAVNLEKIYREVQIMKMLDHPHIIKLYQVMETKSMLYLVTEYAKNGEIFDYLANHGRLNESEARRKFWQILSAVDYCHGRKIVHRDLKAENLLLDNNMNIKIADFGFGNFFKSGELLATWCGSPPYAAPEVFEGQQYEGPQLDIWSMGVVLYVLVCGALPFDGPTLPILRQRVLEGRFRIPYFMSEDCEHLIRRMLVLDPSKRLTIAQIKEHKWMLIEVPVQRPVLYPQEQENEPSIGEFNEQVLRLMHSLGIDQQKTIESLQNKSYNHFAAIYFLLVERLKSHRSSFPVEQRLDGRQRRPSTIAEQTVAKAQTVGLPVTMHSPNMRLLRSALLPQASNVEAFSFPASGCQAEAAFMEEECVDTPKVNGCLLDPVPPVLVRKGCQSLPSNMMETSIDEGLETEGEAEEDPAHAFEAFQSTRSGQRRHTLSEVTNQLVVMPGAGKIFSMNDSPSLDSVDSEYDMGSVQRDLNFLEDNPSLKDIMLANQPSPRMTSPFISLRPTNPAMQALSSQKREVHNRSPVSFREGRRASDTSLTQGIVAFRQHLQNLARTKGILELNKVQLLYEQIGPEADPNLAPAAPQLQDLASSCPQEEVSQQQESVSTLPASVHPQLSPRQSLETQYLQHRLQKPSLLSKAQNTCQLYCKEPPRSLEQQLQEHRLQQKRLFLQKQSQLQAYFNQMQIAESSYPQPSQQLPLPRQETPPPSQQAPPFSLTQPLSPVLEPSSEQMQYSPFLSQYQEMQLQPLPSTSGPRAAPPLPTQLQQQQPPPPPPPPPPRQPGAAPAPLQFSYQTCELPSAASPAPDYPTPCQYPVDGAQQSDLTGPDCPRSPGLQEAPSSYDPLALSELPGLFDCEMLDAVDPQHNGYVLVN

[26] = biological target: Serine/threonine-protein kinase TAO3 (Homo sapiens) (UniProt Q9H2K8); assay: Inhibition of wild-type human partial length TAOK3 (M1 to T316 residues) expressed in mammalian expression system at 10 uM by Kinomescan method relative to control
[27] = biological target: TGF-beta receptor type-1 (Homo sapiens) (UniProt P36897); assay: Inhibition of wild-type human partial length TGFBR1 (D179 to M503 residues) expressed in bacterial expression system at 10 uM by Kinomescan method relative to control
Sequence of TGF-beta receptor type-1 (Homo sapiens) (P36897 whole entry, the tested form may be a part): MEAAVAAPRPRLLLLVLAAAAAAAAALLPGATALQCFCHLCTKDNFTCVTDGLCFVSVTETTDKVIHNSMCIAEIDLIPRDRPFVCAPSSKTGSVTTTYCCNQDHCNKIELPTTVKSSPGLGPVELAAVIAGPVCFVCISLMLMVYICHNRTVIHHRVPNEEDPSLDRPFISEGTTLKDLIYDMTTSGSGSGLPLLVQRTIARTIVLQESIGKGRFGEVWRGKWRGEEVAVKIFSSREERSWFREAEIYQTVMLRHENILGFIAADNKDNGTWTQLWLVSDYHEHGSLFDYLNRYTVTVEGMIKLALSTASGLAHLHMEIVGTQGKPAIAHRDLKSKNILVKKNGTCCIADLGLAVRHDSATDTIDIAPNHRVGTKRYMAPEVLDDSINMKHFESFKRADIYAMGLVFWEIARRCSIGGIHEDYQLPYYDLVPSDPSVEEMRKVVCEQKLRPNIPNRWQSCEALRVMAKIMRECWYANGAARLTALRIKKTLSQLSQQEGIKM

O=C(Nc1cccc([C@@H]2CN(c3ncnc4[nH]ccc34)CCN2CCO)c1)Nc1c(F)cccc1N1CCCC1
inhibition [1]: 72%
inhibition [2]: 82%
inhibition [3]: 99%
inhibition [4]: 100%
inhibition [5]: 17%
inhibition [6]: 100%
inhibition [7]: 100%
inhibition [8]: 95%
inhibition [9]: 6.3%
inhibition [10]: 97%
inhibition [11]: 94%
logD [12]: 2.6

O=C(Nc1cccc([C@H]2CCCN(c3ncnc4[nH]ccc34)C2)c1)Nc1ccccc1N1CCCC1
inhibition [13]: 94%
inhibition [14]: 100%
inhibition [15]: 4.3%
inhibition [16]: 67%
inhibition [17]: 4%
inhibition [18]: 1.9%
inhibition [19]: 69%
inhibition [20]: 54%
inhibition [21]: 69%
inhibition [22]: 81%
inhibition [23]: 100%
inhibition [24]: 40%
inhibition [25]: 84%
inhibition [26]: 79%
inhibition [27]: 96%
